{ppp} = triphosphate
B1: poly-U/UC PAMP: ~100 nt PAMP motif from the HCV genome comprising 5′ppp and the poly U/UC region, recognized by RIG-I; formulated in liposome (nucleic acid)
chain: GGCCAUCCUGUUUUUUUCCCUUUUUUUUUUUCUUUUUUUUUUUUUUUUUUUUUUUUUUUUUUUUUUCUCCUUUUUUUUUCCUCUUUUUUUCCUUUUCUUUCCUUU
modifications: RNA, 5' {ppp}, backbone and methylation of C not given here; formulated in liposome
notes: ~100 nt PAMP motif from the HCV genome comprising 5′ppp and the poly U/UC region, recognized by RIG-I; formulated in liposome

How the values were obtained:
[1] = test system: innate immune response genes; experiment: Innate immune gene mRNA expression (RT-qPCR); format: cell-based, human; conditions: HepG2-hNTCP cells, 24 and 72 hours
HBV = HBV replication infection/treatment time course over 20 dpi; format: cell-based, HBV (Genotype D); conditions: HepG2-hNTCP; for production of pgRNA (RT-qPCR): 6 dpi to 20 dpi; for capsid-associated intracellular HBV DNA (RC, DL, SS DNA), Southern blot: 6 to 20 dpi; for production of cccDNA over time course: F7 10 μM or poly-U/UC PAMP 100 ng/ml from 24 hours after infection, within 2 dpi; for extracellular HBV DNA (qPCR) / secreted HBsAg in culture supernatant (ELISA): infection/treatment time course
Procedure: FIGS. 9A-9E illustrate kinetics of HBV replication in parallel cultures of cells during treatment with F7 or poly-U/UC PAMP. (9A) HepG2-hNTCP cells were infected with HBV at a moi of 1000 Geq/cell. After 24 hours the cells were treated with F7 (10 μM) (upper), or 100 ng/ml X RNA or 100 ng/ml poly-U/UC PAMP (lower). Cells were harvested at each time point, Hirt supernatants prepared and subjected to Southern blot analysis. (B) HBV pgRNA was analyzed by RT-qPCR. Values from 20 Dpi of ‘HBV only’ was set to 100% for RT-PCR analysis. Data was presented as mean±standard deviations (SD), ***P<0.001, ****P 21 0.0001; and ns=non-significant (9C) HBV intracellular capsid-associated DNA from cells treated with 10 uM F7 (upper) or 100 ng/ml XRNA or poly-U/UC PAMP (lower) was analyzed by Southern blot. (9D) Secreted HBsAg from HBV-infected cells treated with F7 (upper) or poly-U/UC (lower) was detected by ELISA. (9E) Extracellular HBV-DNA was measured by qPCR from cells treated with 10 uM (left) or 100 ng/ml XRNA or poly-U/UC PAMP (right). Data are presented as mean±standard deviation (SD) from three independent experiments. ***P 0.0002.
To further determine how the activation of IRF3 impacts the HBV replication cycle, the expression of viral DNA, viral RNA, extracellular HBV DNAs and secreted HBsAg were analyzed over an infection/treatment time course. […] The level of capsid-associated intracellular HBV DNA intermediates of reverse transcription produced over the HBV infection/treatment time course were also measured.
HBV infection HBV (Genotype D) was purified from the supernatant of HepAD38 cells by PEG concentration and subsequent sucrose gradient, as described previously (Ko, C., et al. (2014). DDX3 DEAD-Box RNA Helicase Is a Host Factor That Restricts Hepatitis B Virus Replication at the Transcriptional Level. Journal of Virology 88, 13689-13698; Watashi, K., et al. (2013), supra). For HBV infection cells were seeded into collagen-coated plates. One day later, the cells were infected with HBV in DMEM containing 4% polyethylene glycol 8000 (PEG-8000). The multiplicities of infection (expressed as virus genome equivalent/cell) are indicated in each Figure Legend. The inocula were removed 24 hours later, and the infected cultures were maintained in complete DMEM containing 2.5% DMSO until harvesting, as described previously (Ni, Y., et al. (2014). Hepatitis B and D viruses exploit sodium taurocholate co-transporting polypeptide for species-specific entry into hepatocytes. Gastroenterology 146, 1070-1083).
Reverse transcription quantitative real time qPCR (RT-qPCR) analysis: Total cellular RNAs were extracted from cells using TRIZOL reagent and the manufacturers protocol (Invitrogen). cDNA was synthesized from the purified RNA by both random and oligo (dT) priming using iScript select cDNA synthesis kit (Biorad, Inc.). For HBV cccDNA expression analysis, total DNA was extracted using the DNeasy kit (QIAGEN). For selective cccDNA PCR analysis, isolated DNAs were treated with 10 Units of T5 exonuclease (NEB) for 30 min in 10 μl of reaction volume in 37° C., followed by heat-inactivation at 95° C. for 5 min and 4-fold dilution with Nuclease-free water. For extra-cellular HBV DNA quantification, an external HBV plasmid standard was used to program the PCR (Ko, C., et al. (2018), supra). Relative mRNA levels of all target genes were quantified by RT-qPCR performed using the ΔΔCT method, and expression levels were normalized to house-keeping genes. Real-time PCR assays were carried out using the SYBR green method (Applied Biosystems) performed using an Applied Biosystems 7300 thermocycler. […]

Molecule | mRNA expression of innate immune response genes (IFNs, ISGs, IRF3-target genes) [1] | production of pgRNA (RT-qPCR) (HBV) | capsid-associated intracellular HBV DNA (RC, DL, SS DNA), Southern blot (HBV) | production of cccDNA over time course (HBV) | extracellular HBV DNA (qPCR) (HBV) | secreted HBsAg in culture supernatant (ELISA) (HBV)
O=C(Nc1ccc2nc(NC(=O)c3ccc4ccccc4c3)sc2c1)c1ccccc1 [F7, N-(6-benzamido-1,3-benzothiazol-2-yl)naphthalene-2-carboxamide] | induced only IRF3-target gene expression | significantly suppressed | markedly decreased the levels of these DNA species | markedly suppressed | reduction of extracellular HBV DNA | significant reduction in the level of secreted HBsAg
B1 | induced type I and type III IFN and ISG expression | significantly suppressed | markedly decreased the levels of these DNA species | markedly suppressed | reduction of extracellular HBV DNA | significant reduction in the level of secreted HBsAg
